{
  "source": "patent US10344035B2",
  "about": "“Salt of quinolone compound, polymorphs thereof, preparation method therefor, composition, and applications” (SHANGHAI PHARMACEUTICALS HOLDING CO., LTD., priority 2015, dated 2019)",
  "key": {"c-Met kinase": {"biological_target": "c-Met kinase (Homo sapiens, UniProt P08581)", "sequence (P08581 956-1390 limits assumed)": "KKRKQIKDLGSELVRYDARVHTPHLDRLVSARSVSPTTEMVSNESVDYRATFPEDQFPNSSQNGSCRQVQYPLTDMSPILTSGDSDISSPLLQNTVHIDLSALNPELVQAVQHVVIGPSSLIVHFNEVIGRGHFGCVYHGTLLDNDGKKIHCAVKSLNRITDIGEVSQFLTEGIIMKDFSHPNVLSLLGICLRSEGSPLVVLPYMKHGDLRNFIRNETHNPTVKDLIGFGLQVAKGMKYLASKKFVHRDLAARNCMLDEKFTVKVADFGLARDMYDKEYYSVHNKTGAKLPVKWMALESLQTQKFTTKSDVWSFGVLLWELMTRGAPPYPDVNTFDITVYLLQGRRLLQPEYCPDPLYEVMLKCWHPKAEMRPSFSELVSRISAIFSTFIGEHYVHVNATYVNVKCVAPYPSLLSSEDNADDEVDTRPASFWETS", "test": "c-Met tyrosine kinase inhibition, HTRF kinase assay", "details": "ATP concentration at Km"}, "[1]": {"test": "Body weight change of tumor-bearing mice in LU2503 model", "assay_type": "in vivo, BALB/c nude mice", "details": "QD*21, 21th day", "text": "Tumor tissue was harvested from HuPrime® lung tumor xenograft model LU2503 (R11P6) tumor-bearing mice and cut into 2 to 3 mm diameter tumor blocks subcutaneously inoculated at the right anterior scapular of BALB/c nude mice. When the mean tumor volume reached approximately 139 mm^3, mice were randomly divided to […] based on tumor volume, 8 mice in each group, 4 mice per cage. The day of grouping was defined as day 0. Dosing started on day 0 and ended on day 20. The experiment ended on the 21st day. The experiment was divided into groups of crystal form A of SPH1772 ditartrate (0.3 mg/kg, 3 mg/kg and 30 mg/kg), positive control INC280 (30 mg/kg), positive control Crizotinib (30 mg/kg) and vehicle group, 8 mice in each group, intragastric administration once a day, lasting 21 days."}, "[2]": {"test": "Safety (animal weight and death) in MHCC97H model", "assay_type": "in vivo", "details": "MHCC97H model, 0.05, 0.5 and 5 mg/kg once a day, 21 days", "description": "(§1) BALB/c nude mice were subcutaneously inoculated with MHCC97H cells to develop human hepatocellular carcinoma subcutaneously transplanted tumor model. The experiment was divided into groups including crystal form A of SPH1772 ditartrate (0.05 mg/kg, 0.5 mg/kg and 5 mg/kg), positive control INC280 hydrochloride (5 mg/kg), and Vehicle control group, 10 mice in each group, intragastric administration once a day, lasting 21 days. The efficacy was according to the relative tumor inhibition rate (TGI) and tumor growth delay time, the safety was evaluated according to animal weight and death."}, "[3]": {"system": "human hepatoma MHCC97H cell line", "test": "Anti-tumor effect in MHCC97H xenograft model", "assay_type": "in vivo, BALB/c nude mice", "details": "for relative tumor volume (x ± S) / tumor volume (x ± S) / T/C / TGI (relative tumor inhibition rate): 25th day after dosing; for TGI (relative tumor inhibition rate): from relative tumor volume; for Tumor weight (x ± s) / TGI (tumor weight): 26th day after dosing; for TGI (tumor weight): from tumor weight", "description": "as §1\nBALB/c nude mice, female, 7 to 9 weeks old (the age when mice were inoculated with tumor cells), weight 19.5 to 23.9 g, 75 animals. BALB/c nude mice were purchased from Shanghai Lingchang Biotechnology Co., Ltd., animal certificate number: 2013001816956. Rearing environment: SPF level.\nMHCC97H (Zhongshan Hospital subsidiary to Fudan University) was cultured in DMEM containing 10% fetal bovine serum. MHCC97H cells were collected during exponential growth phase, the cells in PBS was re-suspended to a suitable concentration for subcutaneous tumor inoculation in mice.\n0.2 mL 1×10^7 MHCC97H cells re-suspended in PBS and Matrigel (1:1) was subcutaneously inoculated to the right side of 75 mice. When the mean tumor volume reached 157 mm^3, mice were randomly grouped based on tumor volume. The formula for calculating the tumor volume was that long diameter×short diameter^2/2.\nRelative tumor inhibition rate TGI (%): TGI=1−T/C (%). T/C % is the relative tumor proliferation rate, which is the percentage of the relative tumor volume or tumor weight in the treatment group to that of the control group at a certain time. T and C are respectively the relative tumor volume (RTV) or tumor weight (TW) of the treatment group and control group at a certain time.\nThe formula was as follows: T/C %=TRTV/CRTV*100% (TRTV: mean RTV in the treatment group; CRTV: mean RTV in the control group; RTV=Vt/V0, V0 was the tumor volume of the animal when grouped, and Vt was the tumor volume of the animal after treatment). Or T/C %=TTW/CTW×100% (TTW: mean tumor weight in the treatment group at the end of the experiment; CTW: mean tumor weight in the control group at the end of experiment).\n1.5 h and 24 h after the last dose, blood and tumor were collected, the tumor was weighted, and photographs were taken.\nAll experimental results were expressed as mean tumor volume±SEM (mean standard error). Statistical analysis between different groups was performed on the best point of drug treatment (usually after the last dosing). The independent sample T test method was used to evaluate whether there was significant difference between the relative tumor volume and tumor weight in the treatment group to that of the control group. All data was analyzed by SPSS 18.0. p<0.05 was considered having significant differences."}, "[4]": {"system": "H1993 human lung cancer cell", "test": "Inhibition of proliferation of human lung cancer H1993 cells (CCK-8)", "assay_type": "cell-based", "details": "Homo sapiens, NCI-H1993, 72 h, CCK-8, 72 hours incubation; read-out: IC50, proliferation of H1993 cell line", "description": "CCK-8 is a kit for detecting cell proliferation, cell survival and cytotoxicity and an alternative method for the MTT method.\nAll samples were formulated to a 10^−2 M stock solution with DMSO and stored in small quantities at −80° C. for use.\n1, Cell culture and inoculation: on the first day of the experiment, took normal cultured cells, when cells were in the exponential growth phase, the cells were dispersed by digesting and then inoculated in a 96-well cell culture plate at a density of 5.5×10^4 cells/mL (representing 55000 cells per mL), 90 μL per well; after completion of inoculation, the microplate was placed at 37° C. under 5% CO2 condition overnight.\nAccording to different cell lines, the starting concentration of each compound was different.\n3, Data acquisition: the compound and cells were incubated for 72 hours, the microplate containing the cells was taken out from incubator, 10 μL Cell Counting Kit-8 reaction solution was added to each well, and the microplate was placed in an incubator for 2-3 hours. The absorbance values were measured at 450 nm on the Flexstation 3 and set 650 nm as the reference wavelength."}, "[5]": {"details": "0.05 mg/kg intragastric once a day"}, "[6]": {"details": "0.5 mg/kg intragastric once a day"}, "[7]": {"details": "5 mg/kg intragastric once a day"}},
  "note": "pIC50: −log10 of the molar value. Several values for one entry are separate records, joined by “and”; a condition that tells them apart may be missing. Identical values can stand only once.",
  "data": [
    {"smiles": "Cn1cc(-c2cnc3ccc(Cn4nnc5ncc(-c6cnn(C)c6)nc54)cc3c2)cn1", "note": "[crystal form A of SPH1772 ditartrate]", "values": [
      {"measurement": "pIC50", "setting": "c-Met kinase", "value": 9.48},
      {"measurement": "weight change percentage of tumor-bearing mice", "setting": "[1]; 0.3 mg/kg", "value": "−1.61", "unit": "%"},
      {"measurement": "weight change percentage of tumor-bearing mice", "setting": "[1]; 3 mg/kg", "value": "−1.88", "unit": "%"},
      {"measurement": "weight change percentage of tumor-bearing mice", "setting": "[1]; 30 mg/kg", "value": "−2.01", "unit": "%"},
      {"measurement": "death, drug toxicity and tolerability during the treatment period", "setting": "[2]", "value": "no animal died, no significant drug toxicity was exhibit, and they were well tolerated"},
      {"measurement": "relative tumor volume (x ± S)", "setting": "[3]; [5]", "value": "3.03 ± 0.56"},
      {"measurement": "tumor volume (x ± S)", "setting": "[3]; [5]", "value": "469 mm^3 and 469 ± 85 mm^3"},
      {"measurement": "T/C", "setting": "[3]; 0.05 mg/kg", "value": 26, "unit": "%"},
      {"measurement": "TGI (relative tumor inhibition rate)", "setting": "[3]; 0.05 mg/kg", "value": 74, "unit": "%"},
      {"measurement": "Tumor weight (x ± s)", "setting": "[3]; 0.05 mg/kg", "value": "493 ± 71", "unit": "mg"},
      {"measurement": "TGI (tumor weight)", "setting": "[3]; 0.05 mg/kg", "value": 69, "unit": "%"},
      {"measurement": "relative tumor volume (x ± S)", "setting": "[3]; [6]", "value": "0.39 ± 0.03"},
      {"measurement": "tumor volume (x ± S)", "setting": "[3]; [6]", "value": "60 mm^3 and 60 ± 5 mm^3"},
      {"measurement": "T/C", "setting": "[3]; 0.5 mg/kg", "value": 3, "unit": "%"},
      {"measurement": "TGI (relative tumor inhibition rate)", "setting": "[3]; 0.5 mg/kg", "value": 97, "unit": "%"},
      {"measurement": "Tumor weight (x ± s)", "setting": "[3]; 0.5 mg/kg", "value": "48 ± 2", "unit": "mg"},
      {"measurement": "TGI (tumor weight)", "setting": "[3]; 0.5 mg/kg", "value": 97, "unit": "%"},
      {"measurement": "relative tumor volume (x ± S)", "setting": "[3]; [7]", "value": "0.14 ± 0.02"},
      {"measurement": "tumor volume (x ± S)", "setting": "[3]; [7]", "value": "22 mm^3 and 22 ± 3 mm^3"},
      {"measurement": "T/C", "setting": "[3]; 5 mg/kg", "value": 1, "unit": "%"},
      {"measurement": "TGI (relative tumor inhibition rate)", "setting": "[3]; 5 mg/kg", "value": 99, "unit": "%"},
      {"measurement": "Tumor weight (x ± s)", "setting": "[3]; 5 mg/kg", "value": "31 ± 3", "unit": "mg"},
      {"measurement": "TGI (tumor weight)", "setting": "[3]; 5 mg/kg", "value": 98, "unit": "%"},
      {"measurement": "pIC50", "setting": "[4]", "value": 9.15}
    ]}
  ]
}
